Values of other authors in PubChem BioAssay AID1259409 (Chemical Carcinogenesis Research Information System (CCRIS), 2018).

System: rodent chemically induced tumor inhibition, incidence and multiplicity
Test: CCRIS tumor inhibitor studies
Settings: Carcinogen: 4-NITROQUINOLINE 1-OXIDE [56-57-5], Route [Inhibitor]: ORAL (DIET), Species: RAT, Dose [Carcinogen]: 20 PPM FOR 8 WKS STARTING AT 7 WKS OF AGE (STUDY DURATION: 32 WKS)

C=C(C)[C@@H](CC=C(C)C)CC12C[C@@H](CC=C(C)C)C(C)(C)C(CC=C(C)C)(C(=O)/C(=C(\O)c3ccc(O)c(O)c3)C1=O)C2=O (some centres undefined)
outcome (Dose [Inhibitor]: 0, 100, 500 PPM FOR 8 WKS STARTING AT 6 WKS OF AGE TO 1 WK AFTER CARCINOGEN EXPOSURE (STUDY DURATION: 32 WKS), Dose [Inhibitor]: 0, 100, 500 PPM FOR 8 WKS STARTING AT 6 WKS OF AGE TO 1 WK AFTER CARCINOGEN EXPOSURE (STUDY DURATION: 32 WKS), Strain/Sex: F344/MALE (?,26)/(?,16), Target Tissue: Type of Lesion: TONGUE: SQUAMOUS CELL CARCINOMA): (13/26) 50%; (2/16) 12.5%, 75%, p<0.02; (1/16) 6.3%, 87%, p<0.005
outcome (Dose [Inhibitor]: 0, 100, 500 PPM FOR 8 WKS STARTING AT 6 WKS OF AGE TO 1 WK AFTER CARCINOGEN EXPOSURE (STUDY DURATION: 32 WKS), Dose [Inhibitor]: 0, 100, 500 PPM FOR 8 WKS STARTING AT 6 WKS OF AGE TO 1 WK AFTER CARCINOGEN EXPOSURE (STUDY DURATION: 32 WKS), Strain/Sex: F344/MALE (?/26)/(?,16), Target Tissue: Type of Lesion: TONGUE: PAPILLOMA): (4/26) 15.4%; (1/16) 6.3%, 59.1%; (1/16) 6.3%, 59.1%
outcome (Dose [Inhibitor]: 100, 500 PPM STARTING 1 WK AFTER CARCINOGEN FOR 22 WKS (STUDY DURATION: 32 WKS), Strain/Sex: F344/MALE (?,26)/(?,15), Target Tissue: Type of Lesion: TONGUE: PAPILLOMA): (4/26) 15%; (3/15) 20%, -30%; (2/15) 13%, 14%
outcome (Dose [Inhibitor]: 100, 500 PPM STARTING 1 WK AFTER CARCINOGEN FOR 22 WKS (STUDY DURATION: 32 WKS), Strain/Sex: F344/MALE (?,26)/(?,15), Target Tissue: Type of Lesion: TONGUE: SQUAMOUS CELL CARCINOMA): (13/26) 50%; (1/15) 6.7%, 87%, p<0.05; (0/15) 0%, 100%, p<0.001
